From article PMC7506137, “Selective Phosphodiesterase 1 Inhibitor BTTQ Reduces Blood Pressure in Spontaneously Hypertensive and Dahl Salt Sensitive Rats: Role of Peripheral Vasodilation” (Frontiers in Physiology, 2020) come the findings set out here.

Molecules are shown by their SMILES.

The data set deals with Spontaneous Hypertensive rats (SHR). Put plainly: Rat telemetry, blood pressure and heart rate. The class given is in vivo. Conditions: 3 mg/kg enalapril alone, twice daily oral, SHR. An excerpt: Male Sprague Dawley (Taconic Biosciences) rats, Spontaneous Hypertensive rats (Charles River Laboratories, United States), and Dahl Salt Sensitive rats (Medical College of Wisconsin) were implanted with transmitters (HD S10; Data Science International) for collection of BP and heart rate (HR) data. The transmitters are capable of transmitting a BP signal via a pressure catheter inserted into the abdominal aorta. Initially, a baseline was established and recorded. Each rat was then removed from its recording cage and was dosed by p.o. gavage with vehicle or compound and the animals were then returned to the recording cage. Data sampling for BP and HR was carried out in intervals at selected time points for the duration of the experiment.
All data in this manuscript were presented as mean ± SEM with a significance level of p < 0.05, and n represents the number of individual animals. The significance of differences in concentration-response curves in the ear temperature and, myograft study were calculated using t-test, compare to the vehicle group. The EC50 was calculated using GraphPad Prism 8.3 using a 4-parameter logistic non-linear curve fit model. Single-dose rat telemetry data for normal and SHR rats and repeat-dose telemetry data in Dahls salt-sensitive rats were analyzed by two-way repeated measures ANOVA. Treatment group main effects were compared by Tukey’s HSD method. All telemetry data were analyzed with GraphPad Prism 8.3.

`CCOC(=O)[C@H](CCc1ccccc1)N[C@@H](C)C(=O)N1CCC[C@H]1C(=O)O` [enalapril, reference compound]: the heart rate entry is “without affecting the heart rate” and the “lowering of MAP” value is reported as 13%.
